Source: patent publication US7456167B2, “Cyclopropyl fused indolobenzazepine HCV NS5B inhibitors” (Bristol-Myers Squibb Company, priority 2006, dated 2008)
Like-named read-outs stand apart in the source and are kept apart here.

What was measured:
[1] = test system: HCV replicon cells; test: HCV replicon FRET assay; type: cell-based; conditions: Hepatitis C virus
Text: FRET Assay Preparation. To perform the HCV FRET screening assay, 96-well cell culture plates were used. The FRET peptide (Anaspec, Inc.) (Taliani et al., Anal. Biochem. 1996, 240, 60-67) contains a fluorescence donor, EDANS, near one end of the peptide and an acceptor, DABCYL, near the other end. The fluorescence of the peptide is quenched by […] resonance energy transfer (RET) between the donor and the acceptor, but as the NS3 protease cleaves the peptide the products are released from RET quenching and the fluorescence of the donor becomes apparent. The assay reagent was made as follows: 5× cell Luciferase cell culture lysis reagent from Promega (#E153A) diluted to 1× with dH2O, NaCl added to 150 mM final, the FRET peptide diluted to 20 uM final from a 2 mM stock.
To prepare plates, HCV replicon cells, with or without a Renilla luciferase reporter gene, were trypsinized and placed into each well of a 96-well plate with titrated test compounds added in columns 3 through 12; columns 1 and 2 contained a control compound (HCV protease inhibitor), and the bottom row contained cells without compound. The plates were then placed in a CO2 incubator at 37° C.
Assays. Subsequent to addition of the test compounds described above (FRET Assay Preparation), at various times the plate was removed and Alamar blue solution (Trek Diagnostics, #00-100) was added per well as a measure of cellular toxicity. After reading in a Cytoflour 4000 instrument (PE Biosystems), plates were rinsed with PBS and then used for FRET assay by the addition of 30 ul of the FRET peptide assay reagent described above (FRET Assay Preparation) per well. The plate was then placed into the Cytoflour 4000 instrument which had been set to 340 excite/490 emission, automatic mode for 20 cycles and the plate read in a kinetic mode. Typically, the signal to noise using an endpoint analysis after the reads was at least three-fold. Alternatively, after Alamar blue reading, plates were rinsed with PBS, 50 ul of DMEM (high glucose) without phenol red was added and plates were then used for luciferase assay using the Promega Dual-Glo Luciferase Assay System.
Compound analysis was determined by quantification of the relative HCV replicon inhibition and the relative cytotoxicity values. To calculate cytoxicity values, the average Alamar Blue fluorescence signals from the control wells were set as 100% non-toxic. The individual signals in each of the compound test wells were then divided by the average control signal and multiplied by 100% to determine […]. To calculate the HCV replicon inhibition values, an average background value was obtained from the two wells containing the highest amount of HCV protease inhibitor at the end of the assay period. These numbers were similar to those obtained from naïve Huh-7 cells.
The background numbers were then subtracted from the average signal obtained from the control wells and this number was used as 100% activity. The individual signals in each of the compound test wells were then divided by the averaged control values after background subtraction and multiplied by 100% to determine percent activity. EC50 values for a protease inhibitor titration were calculated as the concentration which caused a 50% reduction in FRET or luciferase activity. The two numbers generated for the compound plate, percent cytoxicity and percent activity were used to determine compounds of interest for further analysis.

[2] = target: T1, HCV NS5B RdRp genotype 1b (Hepatitis C virus genotype 1b, UniProt Q9WMX2); test: Modified HCV NS5B RdRp enzyme assay (preincubation protocol); type: biochemical
T1 construct: The protein was expressed with an 18 amino acid C-terminal truncation to enhance the solubility; made in house; host or cells: E. coli BL21(DE3)
Procedure: HCV NS5B RdRp cloning, expression, and purification. The cDNA encoding the NS5B protein of HCV, genotype 1b, was cloned into the pET21a expression vector. The protein was expressed with an 18 amino acid C-terminal truncation to enhance the solubility. The E. coli competent cell line BL21(DE3) was used for expression of the protein. Cultures were grown at 37° C. for ˜4 hours until the cultures reached an optical density of 2.0 at 600 nm. The cultures were cooled to 20° C. and induced with 1 mM IPTG. Fresh ampicillin was added to a final concentration of 50 μg/ml and the cells were grown overnight at 20° C.
Cell pellets (3 L) were lysed for purification to yield 15-24 mgs of purified NS5B. The lysis buffer consisted of 20 mM Tris-HCl, pH 7.4, 500 mM NaCl, 0.5% triton X-100, 1 mM DTT, 1 mM EDTA, 20% glycerol, 0.5 mg/ml lysozyme, 10 mM MgCl2, 15 ug/ml deoxyribonuclease I, and Complete TM protease inhibitor tablets (Roche). After addition of the lysis buffer, frozen cell pellets were resuspended using a tissue homogenizer. To reduce the viscosity of the sample, aliquots of the lysate were sonicated on ice using a microtip attached to a Branson sonicator. The sonicated lysate was centrifuged at 100,000×g for 1 hr at 4° C. and filtered through a 0.2 μm filter unit (Corning).
The protein was purified using three sequential chromatography steps: Heparin sepharose CL-6B, polyU sepharose 4B, and Hitrap SP sepharose (Pharmacia). The chromatography buffers were identical to the lysis buffer but contained no lysozyme, deoxyribonuclease I, MgCl2 or protease inhibitor and the NaCl concentration of the buffer was adjusted according to the requirements for charging the protein onto the column. Each column was eluted with a NaCl gradient which varied in length from 5-50 column volumes depending on the column type. After the final chromatography step, the resulting purity of the enzyme is >90% based on SDS-PAGE analysis. The enzyme was aliquoted and stored at −80° C.
Standard HCV NS5B RdRp enzyme assay. HCV RdRp genotype 1b assays were run in a final volume of 60 μl in 96 well plates (Costar 3912). The assay buffer is composed of 20 mM Hepes, pH 7.5, 2.5 mM KCl, 2.5 mM MgCl2, 1 mM DTT, 1.6 U RNAse inhibitor (Promega N2515), 0.1 mg/ml BSA (Promega R3961), and 2% glycerol. All compounds were serially diluted (3-fold) in DMSO and diluted further in water such that the final concentration of DMSO in the assay was 2%. HCV RdRp genotype 1b enzyme was used at a final concentration of 28 nM. A polyA template was used at 6 nM, and a biotinylated oligo-dT12 primer was used at 180 nM final concentration. Template was obtained commercially (Amersham 27-4110). Biotinylated primer was prepared by Sigma Genosys. 3H-UTP was used at 0.6 μCi (0.29 μM total UTP). Reactions were initiated by the addition of enzyme, incubated at 30° C. for 60 min, and stopped by adding 25 μl of 50 mM EDTA containing SPA beads (4 μg/μl, Amersham RPNQ 0007). Plates were read on a Packard Top Count NXT after >1 hr incubation at room temperature.
Modified HCV NS5B RdRp enzyme assay. A modified enzyme assay was performed essentially as described for the standard enzyme assay except for the following: The biotinylated oligo dT12 primer was precaptured on streptavidin-coated SPA beads by mixing primer and beads in assay buffer and incubating at room temperature for one hour. Unbound primer was removed after centrifugation. The primer-bound beads were resuspended in 20 mM Hepes buffer, pH 7.5 and used in the assay at final concentrations of 20 nM primer and 0.67 μg/μl beads. Order of addition in the assay: enzyme (14 nM) was added to diluted compound followed by the addition of a mixture of template (0.2 nM), 3H-UTP (0.6 μCi, 0.29 μM), and primer-bound beads, to initiate the reaction; concentrations given are final. Reactions were allowed to proceed for 4 hours at 30° C.
IC50 values for compounds were determined using seven different [I]. […]

[3] = HCV replicon cells, FRET assay, read-out: EC50
[4] = HCV NS5B RdRp genotype 1b, preincubation protocol, read-out: IC50

T1 sequence (Q9WMX2 2420-2992): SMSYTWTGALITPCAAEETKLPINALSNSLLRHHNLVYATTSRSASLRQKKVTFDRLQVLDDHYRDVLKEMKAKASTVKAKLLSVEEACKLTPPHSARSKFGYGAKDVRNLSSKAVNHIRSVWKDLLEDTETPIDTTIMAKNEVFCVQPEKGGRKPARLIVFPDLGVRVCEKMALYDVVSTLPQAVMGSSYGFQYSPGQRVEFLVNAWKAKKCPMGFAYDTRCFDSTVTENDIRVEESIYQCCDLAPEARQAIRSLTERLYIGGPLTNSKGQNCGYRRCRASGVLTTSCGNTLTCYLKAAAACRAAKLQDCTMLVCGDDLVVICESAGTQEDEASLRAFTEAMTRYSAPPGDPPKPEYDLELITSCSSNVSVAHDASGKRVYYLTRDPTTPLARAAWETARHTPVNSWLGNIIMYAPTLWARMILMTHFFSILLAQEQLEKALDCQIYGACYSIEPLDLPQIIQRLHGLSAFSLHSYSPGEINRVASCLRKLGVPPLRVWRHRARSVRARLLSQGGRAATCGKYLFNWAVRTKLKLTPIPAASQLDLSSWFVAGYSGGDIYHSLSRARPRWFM

Compound | EC50 [1, 3] [µM] | IC50 [2, 4] [µM] | EC50 [1] [µM] | IC50 [2] [µM]
COc1ccc2c(c1)C1CC1(S(=O)(=O)N1CCN3CCCC3C1)Cn1c-2c(C2CCCCC2)c2ccc(C(=O)NS(=O)(=O)N3CCOCC3)cc21 (stereo not drawn) [drawing 64] | 0.02 to 1 | 0.02 to 1 |  | 
COc1ccc2c(c1)C1CC1(S(=O)(=O)N(C)CCN(C)C)Cn1c-2c(C2CCCCC2)c2ccc(C(=O)NS(=O)(=O)N(C)C)cc21 (stereo not drawn) | 0.02 to 1 | 0.02 to 1 |  | 
COc1ccc2c(c1)CC(S(=O)(=O)CCN1CCOCC1)Cn1c-2c(C2CCCCC2)c2ccc(C(=O)NS(=O)(=O)N(C)C)cc21 (stereo not drawn) | 0.02 to 1 | 0.02 to 1 |  | 
COc1ccc2c(c1)C1CC1(S(=O)(=O)N1C[C@@H](C)N(C)[C@@H](C)C1)Cn1c-2c(C2CCCCC2)c2ccc(C(=O)NS(=O)(=O)N3CCN(C)CC3)cc21 (stereo partly drawn) | 0.02 to 1 | 0.02 to 1 |  | 
COc1ccc2c(c1)C1CC1(S(=O)(=O)N1C3CCC1CN(C)C3)Cn1c-2c(C2CCCCC2)c2ccc(C(=O)O)cc21 (stereo not drawn) |  |  | 0.02 to 1 | 0.02 to 1
COc1ccc2c(c1)C1CC1(S(=O)(=O)N1CCN(C)CC1)Cn1c-2c(C2CCCCC2)c2ccc(C(=O)NS(=O)(=O)N(C)C)cc21 (stereo not drawn) | 0.02 to 1 | 0.02 to 1 |  | 
COc1ccc2c(c1)C1CC1(S(=O)(=O)N1CCCC1)Cn1c-2c(C2CCCCC2)c2ccc(C(=O)NS(=O)(=O)N3CCOCC3)cc21 (stereo not drawn) | 0.02 to 1 | 0.02 to 1 |  | 
COc1ccc2c(c1)C1CC1(S(=O)(=O)N1CCN3CCCC3C1)Cn1c-2c(C2CCCCC2)c2ccc(C(=O)NS(=O)(=O)C(C)C)cc21 (stereo not drawn) | 0.02 to 1 | 0.02 to 1 |  | 
COc1ccc2c(c1)C1CC1(S(=O)(=O)N1CCN3CCCC3C1)Cn1c-2c(C2CCCCC2)c2ccc(C(=O)NS(=O)(=O)N(C)C)cc21 (stereo not drawn) | 0.02 to 1 | 0.02 to 1 |  | 
COc1ccc2c(c1)C1CC1(S(=O)(=O)N1C[C@@H](C)N(C)[C@@H](C)C1)Cn1c-2c(C2CCCCC2)c2ccc(C(=O)NS(C)(=O)=O)cc21 (stereo partly drawn) | 0.02 to 1 | 0.02 to 1 |  | 
COc1ccc2c(c1)C1CC1(S(=O)(=O)N1CCCN(C)CC1)Cn1c-2c(C2CCCCC2)c2ccc(C(=O)NS(=O)(=O)N(C)C)cc21 (stereo not drawn) | 0.02 to 1 | 0.02 to 1 |  | 
COc1ccc2c(c1)C1CC1(S(=O)(=O)N(C)C)Cn1c-2c(C2CCCCC2)c2ccc(C(=O)O)cc21 (stereo not drawn) | 0.02 to 1 | 1 to 10 |  | 
CCS(=O)(=O)C1Cc2ccccc2-c2c(C3CCCCC3)c3ccc(C(=O)O)cc3n2C1 (stereo not drawn) | 0.02 to 1 | 0.02 to 1 |  | 
COc1ccc2c(c1)C1CC1(S(=O)(=O)N1C3CCC1CC(C)(O)C3)Cn1c-2c(C2CCCCC2)c2ccc(C(=O)NS(=O)(=O)N3CCOCC3)cc21 (stereo not drawn) |  |  | 0.02 to 1 | 0.02 to 1
COc1ccc2c(c1)C1CC1(S(=O)(=O)N1CCCC1)Cn1c-2c(C2CCCCC2)c2ccc(C(=O)NS(=O)(=O)C(C)C)cc21 (stereo not drawn) | 0.02 to 1 | 0.02 to 1 |  | 
